Test results published in US12390482B2, “Neurolytic agents and methods of using and identifying same” (priority 2021, dated 2025).

Legend:
[1] = test system: WT mouse embryonic dorsal root ganglion (DRG) neurons; assay: MTT assay of neuronal death in WT DRG neurons; assay type: cell-based; settings: 12 hr treatment
Experimental: (§1) DRG neuron culture: Mouse DRG culture was as described previously. Mouse DRGs were dissected at embryonic day 13.5. Approximately 50 ganglia were collected from each embryo and dissociated in 0.05% Trypsin containing 0.02% EDTA (Gibco) at 37° C. for 20 min. The DRG neurons were washed 3 times with DRG culture medium after incubation with Trypsin. Cells were seeded as spot cultures in 96-tissue culture plates (Corning) coated with 0.1 mg/ml poly-D-lysine and 0.1 mg/ml laminin. They were cultured in Neurobasal (Gibco) containing 2% B27 (Invitrogen), 100 ng/ml 2.5S NGF (Harlan Bioproducts), and 1 μM 5-fluoro-2′-deoxyuridine/1 μM uridine. The culture medium was exchanged with fresh DRG culture medium every 2-3 days. Lentiviruses were added 3 days after seeding (DIV3).

[2] = test system: SARM1; assay: cADPR levels in sciatic nerve after IP injection, WT mice; assay type: in vivo, mouse; settings: 275 mg/kg IP, 3 days post-administration
Experimental: (§2) Mice: All experiments were performed in accordance with the protocols of the Institutional Animal Care and Use Committee of Washington University in St. Louis and the guidelines for the Care and Use of Laboratory Animals of the National Institutes of Health. Mice were housed on a 12 hr light dark cycle with less than 5 mice per cage and with water and food available at all times. Male and female mice were used for all experiments. 5-week old mice were used for IP injection and 5-6-month old mice were used for Surgifoam wrap treatments. Sarm1 KO mice were a gift from Macro Colonna at Department of Pathology and Immunology, Washington University School of Medicine in St. Louis, and C57BL/6 mice were purchased from Jackson Laboratory.
(§3) Metabolite measurement using LC-MS/MS: Lyophilized samples were reconstituted with 50 μl of 5 mM ammonium formate and centrifuged at 12,000 g for 10 min. Cleared supernatants were transferred to sample vials. Serial dilutions of standards for each metabolite in 5 mM ammonium formate were used for calibration. […] Raw data were acquired and quantified using MassHunter Workstation software version B.08.00 for 6400 Series Triple Quadrupole (Agilent Technologies, Santa Clara, CA). […]

[3] = test system: rabbits, dogs, mice and rats; settings: early studies; could be blocked by administration of Nam; cited from earlier work
[4] = test system: sciatic nerve of WT mice; assay: Local application to sciatic nerve using Surgifoam wrap, WT mice; assay type: in vivo, mouse
Experimental: as §2
(§4) IP injection and local application of 3-AP to sciatic nerve using Surgifoam wrap 5 week-old mice were used for IP injection experiment. Suitable skin incisions were made at the mid-thigh level of 5 week-old mice, followed by a small incision or blunt dissection to the muscle fascia to permit retraction of the biceps femoris and gluteus superficialis muscles to expose the sciatic nerve. The nerve was carefully separated from surrounding connective tissue and then a 0.5×1 cm piece of sterile absorbable hemostatic material (Surgifoam) soaked in 500 mM 3-AP (or saline control) was wrapped around the sciatic nerve. Wound clips, and/or tissue adhesive were used to close the incision.
Tissue processing: Tibial nerves from both control and 3-AP treated sides was dissected out 7 days post-surgery. The distal 2 cm portion of the nerve was fixed in 4% paraformaldehyde for 1 hr at room temperature, then moved to 30% sucrose and embedded in OCT for cryosectioning in the following day. Immunocytochemistry was performed on tibial cryosections using NF200 (Sigma N4142, 1:1000) and MBP (Millipore MAB386, 1:100) followed by anti-rabbit-Alexa488 (1:500) and anti-rat-Cy3 (1:500). The proximal 2 cm portion of the sciatic nerves were fixed in 3% Glutaraldehyde for processing and embedding in epoxy/plastic. Toluidine blue thick sections (400-600 nm thickness) were cut and axon counting was performed using binary image analysis.

[5] = test system: Sarm1 KO DRG neurons expressing W103A, R157A or K193R SARM1 mutants or wildtype SARM1; assay: Axon degeneration in Sarm1 KO DRG neurons infected with lentivirus expressing wildtype or allosteric pocket mutant SARM1; assay type: cell-based, mouse; settings: 3-AP 300 μM
Experimental: as §1
Lentivirus production: Lentivirus production was performed as described previously. HEK 293T cells were seeded with the density of 1×10^6 in 35 mm well tissue culture plate (Corning). […]
Quantification of axon degeneration: After culture for 7 days, axotomy was performed by cutting DRG axons manually with a razor blade. […] Axon degeneration indexes were calculated from these bright-field images using ImageJ (NIH). The axon degeneration index was calculated as the ratio of fragmented axon areas as previously described. Indexes were calculated as the average of six fields per well.

[6] = test system: WT mice; assay: Survival after IP injection of 3-AP, WT mice; assay type: in vivo, mouse
Experimental: as §2, §4

[7] = test system: Sarm1 KO mice; assay: cADPR levels in sciatic nerve after IP injection, Sarm1 KO mice; assay type: in vivo, mouse; settings: similar IP injections
Experimental: as §2, §3

[8] = test system: WT DRG neurons; assay: Metabolite measurement by LC-MS/MS in WT DRG neurons; assay type: cell-based, mouse
Experimental: as §1
Metabolite measurement using LC-MS/MS: Lyophilized samples were reconstituted with 50 μl of 5 mM ammonium formate and centrifuged at 12,000 g for 10 min. Cleared supernatants were transferred to sample vials. Serial dilutions of standards for each metabolite in 5 mM ammonium formate were used for calibration. HPLC-mass spectrometry analysis was performed on an Agilent 1290 Infinity II liquid chromatography system (Agilent Technologies, Santa Clara, CA) with a flexible pump, multisampler, sample cooler and an MCT containing an Atlantis T3 column (2.1×150 mm, 3 μm) and VanGuard guard cartridge (2.1 mm×5 mm, 3 μm) (Waters, Milford, MA), coupled to an Agilent 6470 Triple Quad mass spectrometer (Agilent Technologies, Santa Clara, CA). The mobile phase (0.15 ml/min) was 5 mM ammonium formate in water (A) and 100% methanol (B). The column was equilibrated with 0% B, maintained after injection for 2 min, then a linear gradient to 20% B applied over 4 min. The column was then ramped to 50% B over 2 min, and held at 50% for 2 min, then reverted back to 0% B over the next 5 min and allowed to re-equilibrate at 0% B for 9 min. The total run time was 24 min per sample. […] Raw data were acquired and quantified using MassHunter Workstation software version B.08.00 for 6400 Series Triple Quadrupole (Agilent Technologies, Santa Clara, CA).

[9] = test system: Sarm1 KO mice; assay: Survival after IP injection of 3-AP, Sarm1 KO mice; assay type: in vivo, mouse
Experimental: as §2
as §4, with “Wound clips, and/or tissue adhesive were used to close the incision.” left out

[10] = test system: Sarm1 KO DRG neurons; assay: Metabolite measurement by LC-MS/MS in Sarm1 KO DRG neurons; assay type: cell-based, mouse; settings: 3-AP-treated Sarm1 KO neurons
Experimental: as §1
Metabolite measurement using LC-MS/MS: Lyophilized samples were reconstituted with 50 μl of 5 mM ammonium formate and centrifuged at 12,000 g for 10 min. Cleared supernatants were transferred to sample vials. Serial dilutions of standards for each metabolite in 5 mM ammonium formate were used for calibration. […] Raw data were acquired and quantified using MassHunter Workstation software version B.08.00 for 6400 Series Triple Quadrupole (Agilent Technologies, Santa Clara, CA).

[11] = test system: WT mouse embryonic dorsal root ganglion (DRG) neurons; assay: Axon degeneration in cultured WT DRG neurons; assay type: cell-based; settings: WT DRG neurons
Experimental: as §1
[…] After axon transection, bright-field images of distal axons were taken using the Operetta automated imaging system (PerkinElmer). Axon degeneration indexes were calculated from these bright-field images using ImageJ (NIH). The axon degeneration index was calculated as the ratio of fragmented axon areas as previously described. Indexes were calculated as the average of six fields per well.

[12] = test system: Sarm1 KO DRG neurons; assay: Axon degeneration and neuronal death in cultured Sarm1 KO DRG neurons; assay type: cell-based, mouse; settings: escalating doses, even at 1 mM
Experimental: as §1
Quantification of axon degeneration: After culture for 7 days, axotomy was performed by cutting DRG axons manually with a razor blade. After axon transection, bright-field images of distal axons were taken using the Operetta automated imaging system (PerkinElmer). Axon degeneration indexes were calculated from these bright-field images using ImageJ (NIH). The axon degeneration index was calculated as the ratio of fragmented axon areas as previously described. Indexes were calculated as the average of six fields per well.

[13] = test system: sciatic nerve of Sarm1 KO mice; assay: Local application to sciatic nerve using Surgifoam wrap, Sarm1 KO mice; assay type: in vivo, mouse; settings: 500 mM 3-AP, seven days
Experimental: as §2
as §4, with “Wound clips, and/or tissue adhesive were used to close the incision.” left out

Question: Which results are given for `CC(=O)c1cccnc1` [3-AP, 3-acetylpyridine]?
Answer: neuronal death (MTT assay) [1]: causes neuronal death at similar doses; increase of cADPR levels in the sciatic nerve [2]: 3-4 fold; toxicity on administration to animals [3]: severe neurotoxicity and death; axon loss in tibial nerve distal to treatment site ([4]; WT mice, 500 mM 3-AP, seven days, vs contralateral or saline-treated nerve): dramatic loss of axons; gait after local treatment ([4]; WT mice, Surgifoam soaked in 500 mM 3-AP on sciatic nerve): rapidly develop an abnormal gait; axon damage in the proximal sciatic nerve ([4]; WT mice, proximal to site of 500 mM 3-AP application): no detectable axon damage; systemic harm after local application ([4]; local application to peripheral nerve): without apparent systemic harm; axons of Sarm1 KO neurons expressing SARM1 W103A, R157A or K193R ([5]; allosteric pocket mutants): remain intact; axon degeneration in Sarm1 KO neurons expressing wildtype SARM1 ([5]; lentiviral wildtype SARM1): restores 3-AP-induced axon degeneration; survival ([6]; 275 mg/kg IP): generally survive; survival ([6]; 400 mg/kg IP): die rapidly; lethality ([6]; 500 mg/kg IP): rapidly lethal; cADPR levels in the sciatic nerve [7]: no alteration in cADPR levels; NAD+ and ATP levels ([8]; 3-AP 300 μM, WT neurons): Substantial NAD^+ and ATP depletion; decline in NMN ([8]; within four hours, p<0.001, n=3): greater than 50%; lethality ([9]; 275 mg/kg IP, n=5): no lethality; survival and phenotype ([9]; up to 500 mg/kg IP): survive and have no obvious phenotype; changes in the levels of NAD+, ATP, or cADPR [10]: no significant changes; doses at which axons rapidly degenerate at a rate similar to that after transection [11]: above 250 μM; dose at which axons begin to degenerate slowly ([11]; axonal integrity at multiple time points): 250 µM; effect on axon degeneration and neuronal death [12]: no effect; axon loss in treated nerve [13]: well protected from axon loss
